Data taken from patent US8586588B2, “Aryl pyridazinone derivatives and their use as H3 receptor ligands” (Cephalon, Inc., priority 2006, dated 2013).
Counter-ions that a name gives are not always drawn.

Row | melting point | SMILES
1 | 289 to 292 °C | C[C@@H]1CCCN1CCCOc1ccc2c(c1)CCc1cc(=O)[nH]nc1-2 (as salt: HCl) [Example 209, 8-[3-((R)-2-Methyl-pyrrolidin-1-yl)-propoxy]-5,6-dihydro-2H-benzo[h]cinnolin-3-one]
2 | 110 to 121 °C | O=C1C2CC2C(c2ccc(OC3CCN(C4CCC4)CC3)cc2)=NN1CC(F)(F)F (stereo not drawn) (as salt: HCl) [Example 254, 5-[4-(1-Cyclobutyl-piperidin-4-yloxy)-phenyl]-3-(2,2,2-trifluoro-ethyl)-3,4-diaza-bicyclo[4.1.0]hept-4-en-2-one]
3 | 139 to 140.5 °C | COCn1ncc(-c2ccc(OCCCN3CCC[C@H]3C)cc2C)cc1=O (as salt: HCl) [Example 230, 2-Methoxymethyl-5-{2-methyl-4-[3-((R)-2-methyl-pyrrolidin-1-yl)-propoxyl]-phenyl}-2H-pyridazin-3-one]
4 | 161 to 163 °C | CC1CC(=O)NN=C1c1ccc(OCCCN2CCCC2)cc1 (racemic) (as salt: HCl) [Example 198, 5-Methyl-6-[4-(3-pyrrolidin-1-yl-propoxy)-phenyl]-4,5-dihydro-2H-pyridazin-3-one]
5 | 264 to 266 °C | CN1N=C(c2ccc(OC3CCN(C4CCCC4)CC3)cc2)C2CC2C1=O (stereo not drawn) (as salt: HCl) [Example 260, 5-[4-(1-Cyclopentyl-piperidin-4-yloxy)-phenyl]-3-methyl-3,4-diaza-bicyclo[4.1.0]hept-4-en-2-one]
6 | 203 to 205 °C | C[C@@H]1CCCN1CCCOc1ccc(C2=NN(c3ccccn3)C(=O)CC2)cc1 (as salt: HCl) [Example 183, 6-{4-[3-((R)-2-Methyl-pyrrolidin-1-yl)-propoxy]-phenyl}-2-pyridin-2-yl-4,5-dihydro-2H-pyridazin-3-one]
7 | 143 to 145 °C | CC1CC(=O)N(c2ccccn2)N=C1c1ccc(OC2CCN(C3CCC3)CC2)cc1 (stereo not drawn) (as salt: HCl) [Example 193, 6-[4-(1-Cyclobutyl-piperidin-4-yloxy)-phenyl]-5-methyl-2-pyridin-2-yl-4,5-dihydro-2H-pyridazin-3-one]
8 | 240 to 242 °C | O=c1ccc(-c2ccc(OCCCN3CCCCC3)c(F)c2)n[nH]1 (as salt: HCl) [Example 120, 6-[3-Fluoro-4-(3-piperidin-1-yl-propoxy)-phenyl]-2H-pyridazin-3-one]
9 | 263 to 265 °C | O=C1CCC(c2ccc(OC3CCN(C4CCC4)CC3)cc2)=NN1c1ccccn1 (as salt: HCl) [Example 158, 6-[4-(1-Cyclobutyl-piperidin-4-yloxy)phenyl]-2-pyridin-2-yl-4,5-dihydro-2H-pyridazin-3-one]
10 | 136 to 139 °C | C[C@@H]1CCCN1CCCOc1ccc(C2=NNC(=O)C3CC23)cc1 (mixture of isomers) (as salt: HCl) [Example 243, 5-{4-[3-((R)-2-Methyl-pyrrolidin-1-yl)-propoxy]-phenyl}-3,4-diaza-bicyclo[4.1.0]hept-4-en-2-one]
11 | 147 to 149 °C | O=C1C2CC2C(c2ccc(OC3CCN(C4CCC4)CC3)cc2)=NN1c1ccc(F)cc1 (stereo not drawn) (as salt: HCl) [Example 253, 5-[4-(1-Cyclobutyl-piperidin-4-yloxy)-phenyl]-3-(4-fluoro-phenyl)-3,4-diaza-bicyclo[4.1.0]hept-4-en-2-one]
12 | 261 to 262 °C | O=c1ccc(-c2ccc(OC3CCN(C4CCC4)CC3)nc2)nn1-c1ccccn1 (as salt: HCl) [Example 149, 6-[6-(1-Cyclobutyl-piperidin-4-yloxy)-pyridin-3-yl]-2-pyridin-2-yl-2H-pyridazin-3-one]
13 | 251 to 253 °C | CC(C)n1ncc(-c2ccc(OCCCN3CCC[C@H]3C)cc2)cc1=O (as salt: HCl) [Example 128, 2-Isopropyl-5-{4-[3-((R)-2-methyl-pyrrolidin-1-yl)-propoxy]-phenyl}-2H-pyridazin-3-one]
14 | 169 to 171 °C | CC1CC(=O)NN=C1c1ccc(OCCCN2CCC[C@H]2C)cc1 (mixture of isomers) (as salt: HCl) [Example 194, 5-Methyl-6-{4-[3-((R)-2-methyl-pyrrolidin-1-yl)-propoxy]-phenyl}-4,5-dihydro-2H-pyridazin-3-one]

More lines, now with the values behind:

Row | SMILES | melting point
15 | C[C@@H]1CCCN1CCCOc1ccc(-c2n[nH]c(=O)cc2-c2ccccn2)cc1 (as salt: hydrochloride) [Example 112, 6-{4-[3-((R)-2-Methyl-pyrrolidin-1-yl)-propoxy]-phenyl}-5-pyridin-2-yl-2H-pyridazin-3-one] | 234 °C (dec.)
16 | Cn1nc(-c2ccc(OCCCN3CCC[C@H]3CO)cc2)ccc1=O (as salt: HCl) [Example 14, 6-{4-[3-((S)-2-Hydroxymethyl-pyrrolidin-1-yl)-propoxy]-phenyl}-2-methyl-2H-pyridazin-3-one] | 169 °C
17 | C[C@@H]1CCCN1CCCOc1ccc(-c2ccc(=O)n(CCF)n2)cc1 (as salt: hydrochloride) [Example 118, 2-(2-Fluoro-ethyl)-6-{4-[3-((R)-2-methyl-pyrrolidin-1-yl)-propoxy]-phenyl}-2H-pyridazin-3-one] | 135 to 136 °C
18 | C[C@@H]1CCCN1CCCOc1ccc(-c2ccc(=O)n(-c3ccccc3)n2)cc1 (as salt: HCl) [Example 20, 6-{4-[3-((R)-2-Methyl-pyrrolidin-1-yl)-propoxy]-phenyl}-2-phenyl-2H-pyridazin-3-one] | 82 to 86 °C
19 | CC1CC(c2ccc(OC3CCN(C4CCC4)CC3)cc2)=NNC1=O (stereo not drawn) (as salt: HCl) [Example 116, 6-[4-(1-Cyclobutyl-piperidin-4-yloxy)-phenyl]-4-methyl-4,5-dihydro-2H-pyridazin-3-one] | 257 to 259 °C
20 | C[C@@H]1CCCN1CCCOc1ccc(C2=NNC(=O)CC2c2ccccn2)cc1 (stereo partly drawn) (as salt: hydrochloride) [Example 111, 6-{4-[3-((R)-2-Methyl-pyrrolidin-1-yl)-propoxy]-phenyl}-5-pyridin-2-yl-4,5-dihydro-2H-pyridazin-3-one] | 133 °C (dec.)
21 | CC(C)N1CCC(Oc2ccc(-c3ccc(=O)n(C)n3)cc2)CC1 (as salt: HCl) [Example 72] | 108 to 110 °C
22 | Cc1n[nH]c(=O)cc1-c1ccc(OC2CCN(C3CCC3)CC2)cc1 (as salt: HCl) [Example 103, 5-[4-(1-Cyclobutyl-piperidin-4-yloxy)-phenyl]-6-methyl-2H-pyridazin-3-one] | 296 to 297 °C
23 | Cn1nc(-c2ccc(OCC3CCNCC3)cc2)ccc1=O (as salt: HCl) [Example 66, 2-Methyl-6-[4-(piperidin-4-ylmethoxy)-phenyl]-2H-pyridazin-3-one] | 249 to 251 °C
24 | CCCn1nc(-c2ccc(OCCCN3CCC(C)CC3)cc2)c2sccc2c1=O (as salt: HCl) [Example 34, 7-{4-[3-(4-Methyl-piperidin-1-yl)-propoxy]-phenyl}-5-propyl-5H-thieno[2,3-d]pyridazin-4-one] | 168 to 170 °C
25 | O=c1cc(-c2ccc(OCCCN3CCCCC3)cc2)cnn1-c1ccccn1 (as salt: HCl) [Example 95, 5-[4-(3-Piperidin-1-yl-propoxy)-phenyl]-2-pyridin-2-yl-2H-pyridazin-3-one] | 266 to 268 °C
26 | CC(C)n1nc(-c2ccc(OCCCN3CCCCC3)cc2)c2sccc2c1=O (as salt: HCl) [Example 24, 5-Isopropyl-7-[4-(3-piperidin-1-yl-propoxy)-phenyl]-5H-thieno[2,3-d]pyridazin-4-one] | 195 to 196 °C
27 | C[C@@H]1CCCN1CCCOc1ccc(-c2n[nH]c(=O)c3c2CCC3)cc1 (as salt: HCl) [Example 12, 4-{4-[3-((R)-2-Methyl-pyrrolidin-1-yl)-propoxy]-phenyl}-2,5,6,7-tetrahydro-cyclopenta[d]pyridazin-1-one] | 147 °C
28 | CCCn1nc(-c2ccc(OCCCN3CCC(N(C)C)CC3)cc2)c2sccc2c1=O (as salt: HCl) [Example 35, 7-{4-[3-(4-Dimethylamino-piperidin-1-yl)-propoxy]-phenyl}-5-propyl-5H-thieno[2,3-d]pyridazin-4-one] | 207 to 209 °C
29 | CN1CCC(COc2ccc(-c3ccc(=O)n(C)n3)cc2)CC1 (as salt: HCl) [Example 71, 2-Methyl-6-[4-(1-methyl-piperidin-4-ylmethoxy)-phenyl]-2H-pyridazin-3-one] | 257 to 258 °C
30 | O=c1cc(-c2ccc(OC3CCN(C4CCC4)CC3)nc2)cn[nH]1 (as salt: hydrochloride) [Example 117, 5-[6-(1-Cyclobutyl-piperidin-4-yloxy)-pyridin-3-yl]-2H-pyridazin-3-one] | 232 to 234 °C
31 | C[C@@H]1CCCN1CCCOc1ccc(-c2ccc(=O)n(C)n2)cc1F (as salt: HCl) [Example 7, 6-{3-Fluoro-4-[3-((R)-2-methyl-pyrrolidin-1-yl)-propoxy]-phenyl}-2-methyl-2H-pyridazin-3-one] | 140 to 142 °C
32 | CC(C)n1nc(-c2ccc(OCCCN3CCC(N4CCCC4)CC3)cc2)c2sccc2c1=O (as salt: HCl) [Example 30, 5-Isopropyl-7-{4-[3-(4-pyrrolidin-1-yl-piperidin-1-yl)-propoxy]-phenyl}-5H-thieno[2,3-d]pyridazin-4-one] | 283 °C (dec.)
33 | C[C@@H]1CCCN1CCCOc1ccc(-c2nn(C)c(=O)c3ccccc23)cc1 (as salt: HCl) [Example 49, 2-Methyl-4-{4-[3-((R)-2-methyl-pyrrolidin-1-yl)-propoxy]-phenyl}-2H-phthalazin-1-one] | 216 to 217 °C
34 | Cc1nn(-c2ccccn2)c(=O)cc1-c1ccc(OCCCN2CCC[C@H]2C)cc1 (as salt: hydrochloride) [Example 100, 6-Methyl-5-{4-[3-((R)-2-methyl-pyrrolidin-1-yl)-propoxy]-phenyl}-2-pyridin-2-yl-2H-pyridazin-3-one] | 155 to 157 °C
35 | C[C@@H]1CCCN1CCCOc1ccc(-c2ccc(=O)n(C)n2)cc1 (as salt: HCl) [Example 1, 2-Methyl-6-{4-[3-((R)-2-methyl-pyrrolidin-1-yl)-propoxy]-phenyl}-2H-pyridazin-3-one] | 183 to 185 °C
36 | Cn1nc(-c2ccc(OCCCN3CCCCC3)cc2)ccc1=O (as salt: HCl) [Example 2, 2-Methyl-6-[4-(3-piperidin-1-yl-propoxy)-phenyl]-2H-pyridazin-3-one] | 200 to 201 °C
